Values after ≈ are worked out from the molar mass of the structure shown. Like-named read-outs stand apart in the source and are kept apart here.
Columns and labels:
[1] = test system: Escherichia coli IFO 12734; experiment: Antibacterial activity (MIC), standard method of Japan Society of Chemotherapy; type: cell-based; conditions: IFO12734, read-out: minimum inhibitory concentration (MIC)
Text: (§1) The results obtained from the typical compounds are shown in Table 2 as the minimum inhibitory concentration (MIC, μg/ml). […] In Table 2, Test compound No. corresponds to derivative No. in Table 1.

[2] = test system: Bacillus subtilis IFO 3134; experiment: as above; type: cell-based
Text: as §1

[3] = test system: Staphylococcus aureus IFO 12732; experiment: as above; type: cell-based
Text: as §1

[4] = test system: Klebsiella pneumoniae IFO 3512; experiment: as above; type: cell-based
Text: as §1

[5] = test system: Micrococcus luteus IFO 12708; experiment: as above; type: cell-based
Text: as §1

[6] = test system: Mycobacterium smegmatis ATCC 607; experiment: as above; type: cell-based; conditions: Mycolicibacterium smegmatis
Text: as §1

[7] = Concentration in serum after oral administration to rats; conditions: rat, 20 mg/kg
[8] = IFO3134, Bacillus subtilis IFO 3134, read-out: minimum inhibitory concentration (MIC)
[9] = IFO12732, Staphylococcus aureus IFO 12732, read-out: minimum inhibitory concentration (MIC)
[10] = IFO3512, Klebsiella pneumoniae IFO 3512, read-out: minimum inhibitory concentration (MIC)
[11] = IFO12708, Micrococcus luteus IFO 12708, read-out: minimum inhibitory concentration (MIC)
[12] = ATCC607, Mycobacterium smegmatis ATCC 607, read-out: minimum inhibitory concentration (MIC)

Row | SMILES | MIC [1] [µg/mL] | MIC [2, 8] [µg/mL] | MIC [3, 9] [µg/mL] | MIC [4, 10] [µg/mL] | MIC [5, 11] [µg/mL] | MIC [6, 12] [µg/mL] | concentration at 1 h [7] [ng/mL] | concentration at 3 h [7] [ng/mL] | concentration at 5 h [7] [ng/mL] | MIC ([2]; Bacillus subtilis, IFO3134, read-out: minimum inhibitory concentration (MIC)) [µg/mL] | MIC ([3]; Staphylococcus aureus, IFO12732, read-out: minimum inhibitory concentration (MIC)) [µg/mL] | MIC ([4]; Klebsiella pneumoniae, IFO3512, read-out: minimum inhibitory concentration (MIC)) [µg/mL] | MIC ([5]; Micrococcus luteus, IFO12708, read-out: minimum inhibitory concentration (MIC)) [µg/mL] | MIC ([6]; ATCC607, read-out: minimum inhibitory concentration (MIC)) [µg/mL]
1 | CO[C@H]1/C=C/O[C@@]2(C)Oc3c(C)c(O)c4c(O)c(c(/C=N/N5CCN(C)CC5)c(O)c4c3C2=O)NC(=O)/C(C)=C\C=C\[C@H](C)[C@H](O)[C@@H](C)[C@@H](O)[C@@H](C)[C@H](OC(C)=O)[C@@H]1C [Rifampicin, reference compound] | 10 (≈ 12.2 µM) |  |  |  |  |  |  |  |  | 0.04 (≈ 0.0486 µM) | ≤ 0.02 | 5 (≈ 6.08 µM) | ≤ 0.02 | 10 (≈ 12.2 µM)
2 | CCCN(CCC)c1ccc2nc3c4c5c6c(C)c(O)c4c(=O)c(c-3oc2c1)NC(=O)C(C)=CC=CC(C)C(O)C(C)C(O)C(C)C(OC(C)=O)C(C)C(OC)C=COC(C)(O6)C5=O (stereo not drawn) [compound 4] | > 10 | 0.08 (≈ 0.0905 µM) | ≤ 0.02 | > 10 | ≤ 0.02 | 1.25 (≈ 1.41 µM) | 2000 | 8500 | 2100 |  |  |  |  | 
3 | CCOCCN(CCOCC)c1ccc2nc3c4c5c6c(C)c(O)c4c(=O)c(c-3oc2c1)NC(=O)C(C)=CC=CC(C)C(O)C(C)C(O)C(C)C(OC(C)=O)C(C)C(OC)C=COC(C)(O6)C5=O (stereo not drawn) [compound 9] | 5 (≈ 5.3 µM) | ≤ 0.02 | ≤ 0.02 | 10 (≈ 10.6 µM) | ≤ 0.02 | 1.25 (≈ 1.32 µM) | 2100 | 5400 | 1800 |  |  |  |  | 
4 | COC(CN(C)c1ccc2nc3c4c5c6c(C)c(O)c4c(=O)c(c-3oc2c1)NC(=O)C(C)=CC=CC(C)C(O)C(C)C(O)C(C)C(OC(C)=O)C(C)C(OC)C=COC(C)(O6)C5=O)OC (stereo not drawn) [compound 11] | > 10 | ≤ 0.02 | ≤ 0.02 | 5 (≈ 5.54 µM) | ≤ 0.02 | 2.5 (≈ 2.77 µM) | 2900 | 3400 | 1000 |  |  |  |  | 
5 | COC1C=COC2(C)Oc3c(C)c(O)c4c(=O)c(c5oc6cc(N(C)C7CCCCC7)ccc6nc-5c4c3C2=O)NC(=O)C(C)=CC=CC(C)C(O)C(C)C(O)C(C)C(OC(C)=O)C1C (stereo not drawn) [compound 12] | > 10 | ≤ 0.02 | ≤ 0.02 | > 10 | ≤ 0.02 | 1.25 (≈ 1.4 µM) |  |  |  |  |  |  |  | 

Stronger by MIC [1], values ahead:

Row | MIC [1] [µg/mL] | MIC [2, 8] [µg/mL] | MIC [3, 9] [µg/mL] | MIC [4, 10] [µg/mL] | MIC [5, 11] [µg/mL] | MIC [6, 12] [µg/mL] | concentration at 1 h [7] [ng/mL] | concentration at 3 h [7] [ng/mL] | concentration at 5 h [7] [ng/mL] | SMILES | MIC ([2]; Bacillus subtilis, IFO3134, read-out: minimum inhibitory concentration (MIC)) [µg/mL] | MIC ([3]; Staphylococcus aureus, IFO12732, read-out: minimum inhibitory concentration (MIC)) [µg/mL] | MIC ([4]; Klebsiella pneumoniae, IFO3512, read-out: minimum inhibitory concentration (MIC)) [µg/mL] | MIC ([5]; Micrococcus luteus, IFO12708, read-out: minimum inhibitory concentration (MIC)) [µg/mL] | MIC ([6]; ATCC607, read-out: minimum inhibitory concentration (MIC)) [µg/mL]
6 | 1.25 (≈ 1.48 µM) | 0.04 (≈ 0.0475 µM) | ≤ 0.02 | 2.5 (≈ 2.97 µM) | ≤ 0.02 | 1.25 (≈ 1.48 µM) | 3000 | 5400 | 3000 | CCN(C)c1ccc2nc3c4c5c6c(C)c(O)c4c(=O)c(c-3oc2c1)NC(=O)C(C)=CC=CC(C)C(O)C(C)C(O)C(C)C(OC(C)=O)C(C)C(OC)C=COC(C)(O6)C5=O (stereo not drawn) [compound 2] |  |  |  |  | 
7 | 2.5 (≈ 2.92 µM) | ≤ 0.02 | ≤ 0.02 | 5 (≈ 5.84 µM) | ≤ 0.02 | 1.25 (≈ 1.46 µM) | 1800 | 3300 | 1300 | CCN(CC)c1ccc2nc3c4c5c6c(C)c(O)c4c(=O)c(c-3oc2c1)NC(=O)C(C)=CC=CC(C)C(O)C(C)C(O)C(C)C(OC(C)=O)C(C)C(OC)C=COC(C)(O6)C5=O (stereo not drawn) [compound 3] |  |  |  |  | 
8 | 2.5 (≈ 2.98 µM) | ≤ 0.02 | ≤ 0.02 | 2.5 (≈ 2.98 µM) | ≤ 0.02 | 0.63 (≈ 0.75 µM) | 4100 | 3700 | 2500 | COC1C=COC2(C)Oc3c(C)c(O)c4c(=O)c(c5oc6cc(N7CCC7)ccc6nc-5c4c3C2=O)NC(=O)C(C)=CC=CC(C)C(O)C(C)C(O)C(C)C(OC(C)=O)C1C (stereo not drawn) [compound 17] |  |  |  |  | 
9 | 2.5 (≈ 2.93 µM) | ≤ 0.02 | ≤ 0.02 | 5 (≈ 5.86 µM) | ≤ 0.02 | 1.25 (≈ 1.46 µM) | 2300 | 4900 | 3400 | COC1C=COC2(C)Oc3c(C)c(O)c4c(=O)c(c5oc6cc(N7CCCC7)ccc6nc-5c4c3C2=O)NC(=O)C(C)=CC=CC(C)C(O)C(C)C(O)C(C)C(OC(C)=O)C1C (stereo not drawn) [compound 18] |  |  |  |  | 
10 | 2.5 (≈ 2.88 µM) | ≤ 0.02 | ≤ 0.02 | 10 (≈ 11.5 µM) | ≤ 0.02 | 1.25 (≈ 1.44 µM) | 4900 | 12400 | 16600 | COC1C=COC2(C)Oc3c(C)c(O)c4c(=O)c(c5oc6cc(N7CCCCC7)ccc6nc-5c4c3C2=O)NC(=O)C(C)=CC=CC(C)C(O)C(C)C(O)C(C)C(OC(C)=O)C1C (stereo not drawn) [compound 19] |  |  |  |  | 
11 | 1.25 (≈ 1.42 µM) | 0.04 (≈ 0.0454 µM) | 0.08 (≈ 0.0907 µM) | > 10 | ≤ 0.02 | 1.25 (≈ 1.42 µM) | 3200 | 5700 | 4900 | COC1C=COC2(C)Oc3c(C)c(O)c4c(=O)c(c5oc6cc(N7CCCCCC7)ccc6nc-5c4c3C2=O)NC(=O)C(C)=CC=CC(C)C(O)C(C)C(O)C(C)C(OC(C)=O)C1C (stereo not drawn) [compound 20] |  |  |  |  | 

Source: US4690919A, “Benzoxazinorifamycin derivative, process for preparing the same and antibacterial agent containing the same” (Kanegafuchi Kagaku Kogyo Kabushiki Kaisha, priority 1985, dated 1987)
